The text below walks through data of patent US10065970B2 (Genentech, Inc., priority 2015, dated 2018).

This assay concerns the target PI3Kα (alpha) (Homo sapiens (Human), UniProt P42336). In words: p110α (alpha) PI3K Binding Assay (ADP-Glo lipid kinase reaction). Conditions: read-out: PI3Kα-(alpha) ATP (Ki) micromolar. The format is biochemical. The procedure, abridged: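 Enzyme with PIP2:3PS lipid substrate and ATP/MgCl2 in 50 mM HEPES, 50 mM NaCl, 3 mM MgCl2, 0.01% BSA, 1% DMSO, 120 min at room temperature. ADP formed detected by ADP-Glo luminescence. Ki from 10-point dose-response curves via the Morrison equation.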

[1] abbreviates: PI3K alpha 0.2 nM, ATP 40 μM, PIP2:3PS 50 μM, 120 min, room temperature, Ki by Morrison Equation.

Counter-ions that a name gives are not always drawn. Like-named read-outs stand apart in the source and are kept apart here.

As a reminder, the Ki is a measure of affinity in units of concentration, obtained from inhibition or displacement.

PI3Kα (alpha), sequence (P42336 whole entry): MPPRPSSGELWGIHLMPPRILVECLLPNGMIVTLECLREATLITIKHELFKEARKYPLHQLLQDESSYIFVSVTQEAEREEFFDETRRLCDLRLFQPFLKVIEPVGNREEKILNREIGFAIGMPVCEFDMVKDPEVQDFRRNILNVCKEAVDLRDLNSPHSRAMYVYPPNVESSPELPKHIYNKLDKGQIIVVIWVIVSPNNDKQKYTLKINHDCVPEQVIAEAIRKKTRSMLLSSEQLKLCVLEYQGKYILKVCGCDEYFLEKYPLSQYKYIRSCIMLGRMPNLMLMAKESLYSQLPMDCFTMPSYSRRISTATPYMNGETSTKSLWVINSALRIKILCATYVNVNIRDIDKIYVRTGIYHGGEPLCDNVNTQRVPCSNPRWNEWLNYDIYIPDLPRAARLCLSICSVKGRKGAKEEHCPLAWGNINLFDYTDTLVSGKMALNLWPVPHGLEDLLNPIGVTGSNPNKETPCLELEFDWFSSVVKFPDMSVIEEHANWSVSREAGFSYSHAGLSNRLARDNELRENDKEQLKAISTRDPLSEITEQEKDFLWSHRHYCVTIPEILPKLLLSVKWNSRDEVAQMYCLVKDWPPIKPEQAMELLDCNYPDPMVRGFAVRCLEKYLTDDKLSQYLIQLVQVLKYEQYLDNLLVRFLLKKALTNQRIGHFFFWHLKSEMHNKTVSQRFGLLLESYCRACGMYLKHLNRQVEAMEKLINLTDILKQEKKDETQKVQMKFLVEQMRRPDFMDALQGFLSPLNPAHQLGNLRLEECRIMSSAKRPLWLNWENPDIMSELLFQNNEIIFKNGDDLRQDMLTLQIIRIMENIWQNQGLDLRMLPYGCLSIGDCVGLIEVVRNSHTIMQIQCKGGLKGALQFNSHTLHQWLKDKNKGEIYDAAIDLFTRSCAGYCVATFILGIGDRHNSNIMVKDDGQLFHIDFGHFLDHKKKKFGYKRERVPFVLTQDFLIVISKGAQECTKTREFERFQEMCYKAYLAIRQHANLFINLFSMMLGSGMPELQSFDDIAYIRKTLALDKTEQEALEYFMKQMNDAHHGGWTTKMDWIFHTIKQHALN
PI3Kα (alpha), sequence (P27986 whole entry partner): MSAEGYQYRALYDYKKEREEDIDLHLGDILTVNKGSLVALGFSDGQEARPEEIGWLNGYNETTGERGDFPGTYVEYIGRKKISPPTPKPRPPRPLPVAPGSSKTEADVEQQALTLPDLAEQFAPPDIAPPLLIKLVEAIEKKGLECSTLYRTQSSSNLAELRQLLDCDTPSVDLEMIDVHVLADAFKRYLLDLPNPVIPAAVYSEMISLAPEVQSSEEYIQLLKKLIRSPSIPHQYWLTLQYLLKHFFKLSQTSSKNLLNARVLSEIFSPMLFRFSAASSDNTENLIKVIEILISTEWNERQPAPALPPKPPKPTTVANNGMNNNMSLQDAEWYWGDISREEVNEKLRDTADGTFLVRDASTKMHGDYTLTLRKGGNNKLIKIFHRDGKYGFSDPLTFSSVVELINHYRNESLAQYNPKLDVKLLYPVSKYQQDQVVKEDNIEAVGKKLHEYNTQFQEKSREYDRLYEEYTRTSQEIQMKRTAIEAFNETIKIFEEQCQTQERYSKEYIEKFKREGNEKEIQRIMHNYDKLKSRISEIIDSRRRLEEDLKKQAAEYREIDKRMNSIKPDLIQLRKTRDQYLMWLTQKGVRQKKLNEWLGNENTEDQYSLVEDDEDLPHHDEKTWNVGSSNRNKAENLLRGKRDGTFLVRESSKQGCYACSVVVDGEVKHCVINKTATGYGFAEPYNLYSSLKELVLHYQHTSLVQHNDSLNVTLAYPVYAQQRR

On to `NC(=O)[C@@H](Nc1cc2c3c(c1)nc(-c1cc(C(F)(F)F)c4oc(N)nc4c1)n3CCCO2)C1CC1` [Example 235, (S)-2-((1-(2-Amino-7-(trifluoromethyl)benzo[d]oxazol-5-yl)-8,9-dihydro-7H-6-oxa-2,9a-diazabenzo[cd]azulen-4-yl)amino)-2-cyclopropylacetamide], for which the Ki under setting [1] came to 0.209 nM.
In the case of `CC(C)(C(N)=O)n1cc(-c2nc3cc(N[C@H](C(N)=O)C4CC4)cc4c3n2CCCO4)cn1` [Example 181, 2-(4-{4-[((S)-Carbamoylcyclopropylmethyl)amino]-8,9-dihydro-7H-6-oxa-2,9a-diazabenzo[cd]azulen-1-yl}pyrazol-1-yl)isobutyramide formic acid salt], the Ki under setting [1] was determined as 195 nM.
Regarding `NC(=O)[C@@H](Nc1cc2c3c(c1)nc(-c1ccc4oc(N)nc4c1)n3CCO2)C1CC1` [Example 208, (S)-2-((2-(2-Aminobenzo[d]oxazol-5-yl)-3,4-dihydro-5-oxa-1,2a-diazaacenaphthylen-7-yl)amino)-2-cyclopropylacetamide], the inhibition constant Ki under setting [1] was less than 0.02 nM.
Same read-out and setting: as for `NC(=O)[C@@H]1CCCN1c1cc2c3c(c1)nc(-c1ccc4c(c1)N1CCC(=O)N=C1O4)n3CCCO2` [Example 220, (S)-1-(1-(2-Oxo-3,4-dihydro-2H-benzo[4,5]oxazolo[3,2-a]pyrimidin-7-yl)-8,9-dihydro-7H-6-oxa-2,9a-diazabenzo[cd]azulen-4-yl)pyrrolidine-2-carboxamide], the figure is 2.92 nM.
On to `C[C@H](Oc1cc2c3c(c1)nc(-c1ccc(-c4ncn[nH]4)cc1F)n3CCCCO2)C(N)=O` [Example 293, (S)-2-((1-(2-Fluoro-4-(1H-1,2,4-triazol-3-yl)phenyl)-7,8,9,10-tetrahydro-6-oxa-2,10a-diazacycloocta[cd]inden-4-yl)oxy)propanamide], for which the Ki under setting [1] stood at 0.0222 nM.
The same measure, in the same setting: the figure for `NC(=O)[C@@H]1CCCN1c1cc2c3c(c1)nc(-c1ccc4c(=O)[nH]oc4c1)n3CCCO2` [Example 237, (S)-1-(1-(3-Oxo-2,3-dihydrobenzo[d]isoxazol-6-yl)-8,9-dihydro-7H-6-oxa-2,9a-diazabenzo[cd]azulen-4-yl)pyrrolidine-2-carb oxamide] is 137 nM; for `CC[C@H](Oc1cc2c3c(c1)nc(-c1ccc4oc(N)nc4c1)n3CCCCO2)C(=O)O` [Example 313, (S)-2-((1-(2-Aminobenzo[d]oxazol-5-yl)-7,8,9,10-tetrahydro-6-oxa-2,10a-diazacycloocta[cd]inden-4-yl)oxy)butanoic acid] it is 2.09 nM; for `Cc1cc(-c2nc3cc(N[C@H](C(N)=O)C4CC4)cc4c3n2CCCO4)cc2nc(N)oc12` [Example 205, (S)-2-((1-(2-Amino-7-methylbenzo[d]oxazol-5-yl)-8,9-dihydro-7H-6-oxa-2,9a-diazabenzo[cd]azulen-4-yl)amino)-2-cyclopropylacetamide] it is 0.191 nM.
Consider `CC[C@H](Oc1cc2c3c(c1)nc(-c1ccc(-c4nc[nH]n4)cc1)n3CCCCO2)C(N)=O` (single isomer, unassigned) [Example 268], for which the Ki under setting [1] was 0.0214 nM.
As to `NC(=O)[C@@H]1CCCN1c1cc2c3c(c1)nc(-c1ccc(-c4nc[nH]n4)cc1)n3CCCO2` [Example 221, (S)-1-(1-(4-(1H-1,2,4-Triazol-3-yl)phenyl)-8,9-dihydro-7H-6-oxa-2,9a-diazabenzo[cd]azulen-4-yl)pyrrolidine-2-carboxamide], under setting [1], the Ki was 0.237 nM.
Take `NC(=O)[C@@H](Nc1cc2c3c(c1)nc(-c1ccc4oc(N)nc4c1)n3CCCO2)C1CC1` [Example 135, (S)-2-((1-(2-Aminobenzo[d]oxazol-5-yl)-8,9-dihydro-7H-6-oxa-2,9a-diazabenzo[cd]azulen-4-yl)amino)-2-cyclopropylacetamide]: under setting [1], the Ki is 0.076 nM.
As for `C[C@H](Oc1cc2c3c(c1)nc(-c1cc(F)c4sc(N)nc4c1)n3CCCCO2)C(N)=O` [Example 285, (S)-2-((1-(2-Amino-7-fluorobenzo[d]thiazol-5-yl)-7,8,9,10-tetrahydro-6-oxa-2,10a-diazacycloocta[cd]inden-4-yl)oxy)propanamide], the Ki under setting [1] stood at 0.062 nM.
Turning to `C[C@@H](Oc1cc2c3c(c1)nc(-c1ccc4sc(N)nc4c1)n3CCCCO2)C(N)=O` (single isomer, unassigned) [Example 275], the Ki under setting [1] came out at 0.754 nM.
On the same count and under the same terms, the figure for `NC(=O)[C@@H]1[C@@H](F)CCN1c1cc2c3c(c1)nc(-c1ccc4oc(N)nc4c1)n3CCCCO2` [Example 294, (2R,3S)-1-(1-(2-Aminobenzo[d]oxazol-5-yl)-7,8,9,10-tetrahydro-6-oxa-2,10a-diazacycloocta[cd]inden-4-yl)-3-fluoropyrrolidine-2-carboxamide] is less than 0.02 nM; for `C[C@H](Oc1cc2c3c(c1)nc(-c1ccc4nc(N)nnc4c1)n3CCCCO2)C(N)=O` [Example 292, (S)-2-((1-(3-Aminobenzo[e][1,2,4]triazin-7-yl)-7,8,9,10-tetrahydro-6-oxa-2,10a-diazacycloocta[cd]inden-4-yl)oxy)propanamide] it is 0.024 nM.
For `Nc1nc2cc(-c3nc4cc(Br)cc5c4n3CCCCO5)ccc2o1` [Example 172, 5-(4-bromo-7,8,9,10-tetrahydro-6-oxa-2,10a-diazacycloocta[cd]-inden-1-yl)benzo[d]oxazol-2-amine], the Ki came to 0.501 nM.
With `Nc1nc2cc(-c3nc4cc(NC5CC(F)(F)C5)cc5c4n3CCCO5)ccc2o1` [Example 192, 1-(2-Aminobenzo[d]oxazol-5-yl)-N-(3,3-difluorocyclobutyl)-8,9-dihydro-7H-6-oxa-2,9a-diazabenzo[cd]azulen-4-amine], the Ki under setting [1] is 1.64 nM.
Take `NC(=O)[C@@H](Nc1cc2c3c(c1)nc(-c1ccc4c(c1)OC(F)(F)O4)n3CCCO2)C1CC1` [Example 113, (S)-2-Cyclopropyl-2-((1-(2,2-difluorobenzo[d][1,3]dioxol-5-yl)-8,9-dihydro-7H-6-oxa-2,9a-diazabenzo[cd]azulen-4-yl)amino)acetamide]: under setting [1], the Ki was determined as 268 nM.
Consider `OCc1cnc2cc(-c3nc4cc(Br)cc5c4n3CCCO5)ccc2n1` [Example 198, (6-(4-Bromo-8,9-dihydro-7H-6-oxa-2,9a-diazabenzo[cd]azulen-1-yl)quinoxalin-2-yl)methanol], for which, under setting [1], the Ki was 677 nM.
As to `Cc1nn(C)cc1-c1nc2cc(N[C@H](C(N)=O)C3CC3)cc3c2n1CCCO3` [Example 160, (S)-2-Cyclopropyl-2-[1-(1,3-dimethyl-1H-pyrazol-4-yl)-8,9-dihydro-7H-6-oxa-2,9a-diazabenzo[cd]azulen-4-ylamino]acetamide], under setting [1], the inhibitory constant (Ki) was determined as 914 nM.
Consider `NC(=O)[C@@H](Nc1cc2c3c(c1)nc(N1CCC(CO)CC1)n3CCCO2)C1CC1` [Example 126, (S)-2-Cyclopropyl-2-[1-(4-hydroxymethylpiperidin-1-yl)-8,9-dihydro-7H-6-oxa-2,9a-diazabenzo[cd]azulen-4-ylamino]acetamide], for which, under setting [1], the Ki was found to be 678 nM.
On the same count and under the same terms, as for `C[C@@H](C(N)=O)n1cc(-c2cc3c4c(c2)nc(-c2ccc5oc(N)nc5c2)n4CCCO3)cn1` [Example 219, (S)-2-(4-(1-(2-Aminobenzo[d]oxazol-5-yl)-8,9-dihydro-7H-6-oxa-2,9a-diazabenzo[cd]azulen-4-yl)-1H-pyrazol-1-yl)propanamide], the figure is 0.242 nM; as for `CNC(=O)C(C)(C)n1cc(-c2cc3c4c(c2)nc(-c2ccc5oc(N)nc5c2)n4CCCO3)cn1` [Example 154, 2-(4-(1-(2-Aminobenzo[d]oxazol-5-yl)-8,9-dihydro-7H-6-oxa-2,9a-diazabenzo[cd]azulen-4-yl)-1H-pyrazol-1-yl)-N,2-dimethylpropanamide], 0.317 nM.
